According to ChEMBL document CHEMBL3871277, “Synthesis and anti-metastatic effects of pregn-17(20)-en-3-amine derivatives” (Eur J Med Chem, 2016):
Calls of active or inactive are those of the source. The calls are words filed in the database; no cut-off is given here.

Legend:
[1] = Antimigratory activity against EGF induced chemotaxis in human MDA-MB-231 cells preincubated for 24 hrs followed by EGF addition for 3.5 hrs by light microscopy; assay type: functional, cell-based
MDA-MB-231 [2] = assay: Antimigratory activity in human MDA-MB-231 cells assessed as decrease in cell adhesion at 0.25 uM after 24 hrs by MTT assay; assay type: functional, cell-based
[3] = Anti-invasive activity in human HepG2 cells at 4.5 uM after 24 hrs by MTT dye based boyden chamber assay; assay type: functional
[4] = Antimigratory activity in human HepG2 cells at 4.5 uM after 24 hrs by wound healing assay; assay type: functional
[5] = molecular target: Integrin beta-1 (Homo sapiens) (UniProt P05556); assay: Inhibition of integrin-beta1 phosphorylation in human MDA-MB-231 cells by Western blot analysis; assay type: cell-based
Integrin beta-1 (Homo sapiens), sequence (P05556 whole entry): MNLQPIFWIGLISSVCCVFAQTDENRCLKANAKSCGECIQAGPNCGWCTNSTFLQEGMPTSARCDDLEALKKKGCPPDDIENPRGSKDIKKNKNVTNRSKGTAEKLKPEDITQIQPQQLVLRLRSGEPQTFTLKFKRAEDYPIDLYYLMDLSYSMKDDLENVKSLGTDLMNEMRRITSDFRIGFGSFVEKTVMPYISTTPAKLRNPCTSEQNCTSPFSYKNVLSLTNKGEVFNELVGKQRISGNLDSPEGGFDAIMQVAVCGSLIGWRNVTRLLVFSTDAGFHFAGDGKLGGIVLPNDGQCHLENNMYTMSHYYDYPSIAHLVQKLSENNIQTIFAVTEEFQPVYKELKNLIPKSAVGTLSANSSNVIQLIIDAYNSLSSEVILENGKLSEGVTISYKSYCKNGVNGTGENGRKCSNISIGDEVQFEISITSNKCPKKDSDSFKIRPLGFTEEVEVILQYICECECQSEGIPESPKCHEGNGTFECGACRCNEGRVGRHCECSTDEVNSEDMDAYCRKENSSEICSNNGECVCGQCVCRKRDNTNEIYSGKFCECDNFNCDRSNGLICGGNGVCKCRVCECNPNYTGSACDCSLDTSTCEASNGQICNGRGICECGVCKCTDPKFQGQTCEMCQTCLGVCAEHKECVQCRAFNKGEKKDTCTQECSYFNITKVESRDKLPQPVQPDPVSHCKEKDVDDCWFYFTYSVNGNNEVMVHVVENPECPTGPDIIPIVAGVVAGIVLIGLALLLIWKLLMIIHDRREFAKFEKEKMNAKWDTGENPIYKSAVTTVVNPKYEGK

MDA-MB-231 [6] = assay: Inhibition of PI3K-p85 in human MDA-MB-231 cells assessed as reduction in Akt phosphorylation by Western blot analysis; assay type: cell-based
MDA-MB-231 [7] = assay: Inhibition of PI3K-p85 phosphorylation in human MDA-MB-231 cells by Western blot analysis; assay type: cell-based
MDA-MB-231 [8] = assay: Antimigratory activity in human MDA-MB-231 cells after 24 hrs by wound healing assay; assay type: functional, cell-based
[9] = Effect on PKCzeta protein expression in human MDA-MB-231 cells at 0.25 to 6.75 uM by Western blot analysis; assay type: ADME, cell-based; conditions: mda-mb-231, 6.75 µM
MDA-MB-231 [10] = assay: Antiinvasive activity in human MDA-MB-231 cells after 24 hrs by transwell migration assay; assay type: functional, cell-based
MDA-MB-231 [11] = assay: Antimigratory activity in human MDA-MB-231 cells assessed as decrease in cell adhesion to fibronectin at 1 to 40 uM after 24 hrs by MTT assay; assay type: functional, cell-based
MDA-MB-231 [12] = assay: Inhibition of PI3K-p85 in human MDA-MB-231 cells assessed as reduction in PKCzeta phosphorylation by Western blot analysis; assay type: cell-based
[13] = Effect on integrin-beta1 protein expression in human MDA-MB-231 cells at 5 to 45 uM by Western blot analysis; assay type: ADME, cell-based; conditions: mda-mb-231, 45 µM
[14] = Homo sapiens, MDA-MB-231, read-out: IC50

Compound | IC50 [1, 14] | further results
C/C=C1/[C@H](O)C[C@H]2[C@@H]3CCC4C[C@@H](NCC)CC[C@]4(C)[C@H]3CC[C@]12C (stereo partly specified) | – | IC50 ([1]; mda-mb-231): Nd(Toxic)
C/C=C1/[C@H](O)C[C@H]2[C@@H]3CCC4C[C@H](NC)CC[C@]4(C)[C@H]3CC[C@]12C (stereo partly specified) | – | IC50 ([1]; mda-mb-231): Nd(Toxic)
C/C=C1/C(=O)C[C@H]2[C@@H]3CCC4C[C@@H](NCc5ccc(C#N)cc5)CC[C@]4(C)[C@H]3CC[C@]12C (stereo partly specified) | 0.84 µM | –
C/C=C1/C(=O)C[C@H]2[C@@H]3CCC4C[C@H](NC)CC[C@]4(C)[C@H]3CC[C@]12C (stereo partly specified) | – | IC50 ([1]; mda-mb-231): Nd(Toxic)
C/C=C1/[C@H](O)C[C@H]2[C@@H]3CCC4C[C@H](N(C)C)CC[C@]4(C)[C@H]3CC[C@]12C (stereo partly specified) | > 50 µM | –
FC(F)c1nc2ccccc2n1-c1nc(N2CCOCC2)nc(N2CCOCC2)n1 | – | Activity (MDA-MB-231 [2]): Active
C/C=C1/[C@H](O)C[C@H]2[C@@H]3CCC4C[C@@H](N(C)C)CC[C@]4(C)[C@H]3CC[C@]12C (stereo partly specified) | – | IC50 ([1]; mda-mb-231): Nd(Toxic)
C/C=C1/C(=O)C[C@H]2[C@@H]3CCC4C[C@@H](N5CCCCC5)CC[C@]4(C)[C@H]3CC[C@]12C (stereo partly specified) | > 50 µM | –
C/C=C1/CC[C@H]2[C@@H]3CCC4C[C@H](NCc5ccc(C#N)cc5)CC[C@]4(C)[C@H]3CC[C@]12C (stereo partly specified) | > 50 µM | –
C/C=C1/C(=O)C[C@H]2[C@@H]3CCC4C[C@H](N(C)C)CC[C@]4(C)[C@H]3CC[C@]12C (stereo partly specified) | 7.37 µM | –
C/C=C1/[C@H](O)C[C@H]2[C@@H]3CCC4C[C@H](NCc5ccc(C#N)cc5)CC[C@]4(C)[C@H]3CC[C@]12C (stereo partly specified) | – | IC50 ([1]; mda-mb-231): Nd(Toxic)
C/C=C1/[C@H](O)C[C@H]2[C@@H]3CCC4C[C@H](N)CC[C@]4(C)[C@H]3CC[C@]12C (stereo partly specified) | 1.08 µM | –
C/C=C1/C(=O)C[C@H]2[C@@H]3CCC4C[C@@H](N)CC[C@]4(C)[C@H]3CC[C@]12C (stereo partly specified) | 0.48 µM | –
C/C=C1/CC[C@H]2[C@@H]3CCC4C[C@@H](NCc5ccc(C#N)cc5)CC[C@]4(C)[C@H]3CC[C@]12C (stereo partly specified) | 26.7 µM | –
C/C=C1/C(=O)C[C@H]2[C@@H]3CCC4C[C@@H](NC)CC[C@]4(C)[C@H]3CC[C@]12C (stereo partly specified) | 18.9 µM | –
C/C=C1/C(=O)C[C@H]2[C@@H]3CCC4C[C@@H](N(C)C)CC[C@]4(C)[C@H]3CC[C@]12C (stereo partly specified) | 2.14 µM | –
C/C=C1/CC[C@H]2[C@@H]3CCC4C[C@@H](NCC)CC[C@]4(C)[C@H]3CC[C@]12C (stereo partly specified) | 0.17 µM | –
C/C=C1/CC[C@H]2[C@@H]3CCC4C[C@H](N5CCCC5)CC[C@]4(C)[C@H]3CC[C@]12C (stereo partly specified) | 24.2 µM | –
C/C=C1/[C@H](O)C[C@H]2[C@@H]3CCC4C[C@@H](N)CC[C@]4(C)[C@H]3CC[C@]12C (stereo partly specified) | – | IC50 ([1]; mda-mb-231): Nd(Toxic)
C/C=C1/[C@H](O)C[C@H]2[C@@H]3CCC4C[C@@H](NCc5ccc(C#N)cc5)CC[C@]4(C)[C@H]3CC[C@]12C (stereo partly specified) | 15.9 µM | –
C/C=C1/CC[C@H]2[C@@H]3CCC4C[C@H](N(C)C)CC[C@]4(C)[C@H]3CC[C@]12C (stereo partly specified) | 7.45 µM | –
C/C=C1/CC[C@H]2[C@@H]3CCC4C[C@H](N)CC[C@]4(C)[C@H]3CC[C@]12C (stereo partly specified) | 2.21 µM | –
C/C=C1/C(=O)C[C@H]2[C@@H]3CCC4C[C@H](NCc5ccc(C#N)cc5)CC[C@]4(C)[C@H]3CC[C@]12C (stereo partly specified) | 2.34 µM | –

Compound | IC50 [1, 14] | further results
C/C=C1/CC[C@H]2[C@@H]3CCC4C[C@@H](N5CCCC5)CC[C@]4(C)[C@H]3CC[C@]12C (stereo partly specified) | 4.36 µM | –
C/C=C1/[C@H](O)C[C@H]2[C@@H]3CCC4C[C@@H](N5CCCC5)CC[C@]4(C)[C@H]3CC[C@]12C (stereo partly specified) | – | IC50 ([1]; mda-mb-231): Nd(Toxic)
C/C=C1/C(=O)C[C@H]2[C@@H]3CCC4C[C@@H](NCC)CC[C@]4(C)[C@H]3CC[C@]12C (stereo partly specified) | 28.5 µM | –
C/C=C1/C(=O)C[C@H]2[C@@H]3CCC4C[C@H](N)CC[C@]4(C)[C@H]3CC[C@]12C (stereo partly specified) | 0.3 µM | –
C/C=C1/CC[C@H]2[C@@H]3CCC4C[C@@H](N5CCCCC5)CC[C@]4(C)[C@H]3CC[C@]12C (stereo partly specified) | > 50 µM | –
C/C=C1/C(=O)C[C@H]2[C@@H]3CCC4C[C@@H](N5CCCC5)CC[C@]4(C)[C@H]3CC[C@]12C (stereo partly specified) | – | IC50 ([1]; mda-mb-231): Nd(Toxic)
C/C=C1/CC[C@H]2[C@@H]3CCC4C[C@H](NCC)CC[C@]4(C)[C@H]3CC[C@]12C (stereo partly specified) | 20.2 µM | –
C/C=C1/[C@H](O)C[C@H]2[C@@H]3CCC4C[C@@H](NC)CC[C@]4(C)[C@H]3CC[C@]12C (stereo partly specified) | 4.77 µM | –
CC=C1CC[C@H]2[C@@H]3CCC4C[C@H](NC)CC[C@]4(C)[C@H]3CC[C@]12C (stereo partly specified) | > 50 µM | –
C/C=C1/[C@H](O)C[C@H]2[C@@H]3CCC4C[C@H](N5CCCC5)CC[C@]4(C)[C@H]3CC[C@]12C (stereo partly specified) | 0.26 µM | –
C/C=C1/[C@H](O)C[C@H]2[C@@H]3CCC4C[C@@H](N5CCCCC5)CC[C@]4(C)[C@H]3CC[C@]12C (stereo partly specified) | 21.4 µM | –
O=c1cc(N2CCOCC2)oc2c(-c3ccccc3)cccc12 [LY-294002] | 0.38 µM | –
C/C=C1/CC[C@H]2[C@@H]3CCC4C[C@@H](N(C)C)CC[C@]4(C)[C@H]3CC[C@]12C (stereo partly specified) | 5.51 µM | –
C/C=C1/[C@H](O)C[C@H]2[C@@H]3CCC4C[C@H](NCC)CC[C@]4(C)[C@H]3CC[C@]12C (stereo partly specified) | 32.8 µM | –
C/C=C1/CC[C@H]2[C@@H]3CCC4C[C@H](N5CCCCC5)CC[C@]4(C)[C@H]3CC[C@]12C (stereo partly specified) | 2.48 µM | –
C[C@@H]1CC[C@@]2(NC1)O[C@H]1C[C@H]3[C@@H]4CC=C5C[C@@H](O[C@@H]6O[C@H](CO)[C@@H](O[C@@H]7O[C@@H](C)[C@H](O)[C@@H](O)[C@H]7O)[C@H](O)[C@H]6O[C@@H]6O[C@@H](C)[C@H](O)[C@@H](O)[C@H]6O)CC[C@]5(C)[C@H]4CC[C@]3(C)[C@H]1[C@@H]2C [SOLAMARGINE] | – | Activity [3]: 40%; Activity [4]: 40%
CC=C1CC[C@H]2[C@@H]3CCC4C[C@@H](NC)CC[C@]4(C)[C@H]3CC[C@]12C (stereo partly specified) | 1.21 µM | –
C/C=C1/C(=O)C[C@H]2[C@@H]3CCC4C[C@H](NCC)CC[C@]4(C)[C@H]3CC[C@]12C (stereo partly specified) | – | IC50 ([1]; mda-mb-231): Nd(Toxic)
C/C=C1/CC[C@H]2[C@@H]3CCC4C[C@@H](N)CC[C@]4(C)[C@H]3CC[C@]12C (stereo partly specified) | 0.09 µM | –
C/C=C1/[C@H](O)C[C@H]2[C@@H]3CCC4C[C@H](N5CCCCC5)CC[C@]4(C)[C@H]3CC[C@]12C (stereo partly specified) | 0.85 µM | –
C/C=C1/C(=O)C[C@H]2[C@@H]3CCC4C[C@H](N5CCCCC5)CC[C@]4(C)[C@H]3CC[C@]12C (stereo partly specified) | 0.03 µM | inhibition [5]: Dose-dependent effect; inhibition (MDA-MB-231 [6]): Dose-dependent effect; inhibition (MDA-MB-231 [7]): Dose-dependent effect; Activity (MDA-MB-231 [8]): Dose-dependent effect; Activity [9]: Non-Toxic; Activity (MDA-MB-231 [10]): Dose-dependent effect; Activity (MDA-MB-231 [11]): Active; inhibition (MDA-MB-231 [12]): Dose-dependent effect; Activity [13]: Non-Toxic
C/C=C1/C(=O)C[C@H]2[C@@H]3CCC4C[C@H](N5CCCC5)CC[C@]4(C)[C@H]3CC[C@]12C (stereo partly specified) | > 50 µM | –
C/C=C1/CC[C@H]2[C@@H]3CCC4C[C@@H](NC(=O)c5ccc(C#N)cc5)CC[C@]4(C)[C@H]3CC[C@]12C (stereo partly specified) | 0.24 µM | –
